The values that follow are results of earlier work, collected in US7204982B2, “Compositions and methods for treatment and detection of multiple cancers” (The Regents of the University of California, priority 2002, dated 2007).

One series has as its system malignant gliomas. The settings on record: high doses, orally administered; Couldwell et al. 1996.
Series [1] concerns human glioblastoma cell lines (U87, U373, and U138). Particulars: cell lines lack detectable estrogen receptor expression.

The structures appear in SMILES notation. Structures can show the parent of a compound that is named as a salt.

As to `CC/C(=C(\c1ccccc1)c1ccc(OCCN(C)C)cc1)c1ccccc1` [tamoxifen, (Z)-2[p[(1,2-diphenyl-1-butenyl)phenoxyl]-N,N-dimethylamine citrate], the clinical benefit result in the series with malignant gliomas is “of benefit in some patients with malignant gliomas”. Further, the cytotoxicity result in series [1] is given as “responsive to tamoxifen cytotoxicity”.
